Data reported in patent US9879029B2, “ERK inhibitors” (Eli Lilly and Company, priority 2014, dated 2018).

Legend:
[1] = tested on: human colorectal cancer cells HCT116; assay: Xenograft tumor model HCT116; type: in vivo, female athymic nude mice; settings: oral
Experimental: (§1) The purpose of this assay is to measure reduction in tumor volume in response to test compound administration. Expand human colorectal cancer cells HCT116 (ATCC, #CCL-247) or human non-small cell lung cancer cells NCI-H358 (ATCC, # CRL-5807) in culture, harvest and inject 5×10e^6 cells in 200 μL of 1:1 HBSS+matrigel solution subcutaneously on to the rear right flank of female athymic nude mice (22-25 gm, Harlan Laboratories). Expand human pancreatic cancer cells SW1990 (ATCC, # CRL-2172) in culture, harvest and inject 2×10e^6 cells in 200 μL of 1:1 HBSS+matrigel solution subcutaneously on to the rear right flank of female athymic nude mice (22-25 gm, Harlan Laboratories). Expand human pancreatic cancer cells MIA PACA-2 (ATCC, # CRL-1420) or human non-small cell lung cancer cells A549 (ATCC, # CCl-185) in culture, harvest and inject 5×10e^6 cells in 200 μL of 1:1 HBSS+matrigel solution subcutaneously on to the rear right flank of female CB-17 SCID mice (22-25 gm, Charles River Laboratories International Inc.). Expand human melanoma cells A-375 (ATCC, # CRL-1619) in culture, harvest and inject 5×10e^6 cells in 200 μL of 1:1 HBSS+matrigel solution subcutaneously on to the rear right flank of female NIH nude rats (140-160 gm, Taconic Farms). Measure tumor growth and body weight twice per week beginning the seventh day after the implantation. When tumor sizes reach 200-400 mm^3, randomize animals and group into groups of eight to ten animals. Prepare test compound in an appropriate vehicle (vehicle: 1% HEC/0.25% Tween 80/0.05% Antifoam) and administer by oral gavage for 14 to 28 days. Tumor response is determined by tumor volume measurement performed twice a week during the course of treatment.

[2] = tested on: human pancreatic cancer cells MIA PACA-2; assay: Xenograft tumor model MIA PACA-2; type: in vivo, female CB-17 SCID mice; settings: oral, p <0.001
Experimental: as §1

[3] = tested on: ERK substrate (RSK) phosphorylation in HCT116 colorectal cancer cell line; assay: ERK1/2 cell mechanistic assay (pRSK1 Alphascreen assay); type: cell-based; settings: Homo sapiens, HCT-116, 2 h; HCT116 cells, two hours, Rel IC50; read-out: pRSK1 inhibition IC50
Experimental: The purpose of this assay is to measure the ability of compounds to inhibit ERK signaling in cancer cells in vitro. Carry out the pRSK1 Alphascreen assay using the HCT116 colorectal cancer cell line (ATCC, # CCL-247). Routinely culture HCT116 cells in Dulbecco's Modified Eagle's Medium (DMEM) (Hyclone, #SH30022) growth medium containing 5% Fetal Bovine Serum (FBS) (Gibco, #16000-044) in T-150 flasks and incubate in a 5% CO2 incubator at 37° C. Harvest cells when they become confluent and freeze in freezing medium at 1×10e^7 cells/mL as “assay ready frozen cells” and store in liquid nitrogen. To run the assay, plate 40,000 HCT116 cells/well in a 96-well tissue culture plate and incubate at 37° C. in a 5% CO2 incubator overnight. Test compounds at 10 concentrations starting at a 20 μM top concentration and utilize a 1:3 dilution scheme (20 μM to 0.001 μM) with a final DMSO concentration of 0.5% (v/v). Add compounds in 20 μL serum free growth medium and incubate at 37° C. for two hours. Remove growth medium and add 50 μL of 1× lysis buffer [Cell Signaling Technology, #9803] containing 1×holt protease and phosphatase inhibitor cocktail [Thermo, #78441] to each well and incubate at room temperature for 10 minutes on a shaker. […] Measure the fluorescence intensity in each well by reading the plates in ENVISION® (PerkinElmer) plate reader. […]

[4] = tested on: human non-small cell lung cancer cells NCI-H358; assay: Xenograft tumor model NCI-H358; type: in vivo, female athymic nude mice; settings: oral, p <0.001
Experimental: as §1, with “Measure tumor growth and body weight twice per week beginning the seventh day after the implantation. When tumor sizes reach 200-400 mm^3, randomize animals and group into groups of eight to ten animals. Prepare test compound in an appropriate vehicle (vehicle: 1% HEC/0.25% Tween 80/0.05% Antifoam) and administer by oral gavage for 14 to 28 days.” left out

COCCN1C(=O)c2cc(-c3ccnc(Nc4ccnn4C)c3)sc2C1(C)C [Example 1, 5-(2-Methoxyethyl)-6,6-dimethyl-2-{2-[(1-methyl-1H-pyrazol-5-yl)amino]pyridin-4-yl}-5,6-dihydro-4H-thieno[2,3-c]pyrrol-4-one]
Delta T/C (%) ([1]; HCT116, 10 mg/kg BID, p 0.023): 55%
Delta T/C (%) ([1]; HCT116, 25 mg/kg BID, p <0.001): 89%
Regression (%) ([1]; HCT116, 50 mg/kg BID, p <0.001): −31%
Delta T/C (%) ([1]; HCT116, 50 mg/kg QD, p <0.001): 83%
Delta T/C (%) ([1]; HCT116, 75 mg/kg QD, p <0.001): 98%
Delta T/C (%) ([2]; MIA PACA-2, 10 mg/kg BID): 76%
Regression (%) ([2]; MIA PACA-2, 25 mg/kg BID): −15%
Delta T/C (%) ([2]; MIA PACA-2, 25 mg/kg QD): 74%
Regression (%) ([2]; MIA PACA-2, 50 mg/kg BID): −72%
Delta T/C (%) ([2]; MIA PACA-2, 50 mg/kg QD): 97%
Regression (%) ([2]; MIA PACA-2, 75 mg/kg QD): −39%
IC50 [3]: 261 nM
Regression (%) ([4]; NCI-H358, 25 mg/kg BID): −13%
Regression (%) ([4]; NCI-H358, 50 mg/kg BID): −35%
